Data as given in the supplement of paper PMC11997997.

What was measured:
[1] = test system: murine bone marrow-derived macrophages; assay: area under cytotoxicity dose-response curve (AUC (% cytotoxicity x dose, relative)); higher = more cytotoxic; conditions: duration: 6 days; dose range: 0.13-80 uM, 8 points
Procedure, shortened: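 Cytotoxicity is expressed as the area under the dose–response curve from GraphPad Prism version 10. To obtain it, primary murine bone marrow-derived macrophages were incubated for 6 days at 37 °C in 5% CO2 across final concentrations of 80–0.13 μM. Viability came from CellTiter-Glo luminescence, and percent cytotoxicity was normalised to vehicle and positive control wells.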

[2] = test system: Mycobacterium tuberculosis CDC1551 (intracellular, in murine BMDM); assay: area under intracellular growth-inhibition dose-response curve (AUC (% inhibition x dose, relative)); higher = more potent; conditions: duration: 6 days; dose range: 0.13-80 uM, 8 points
Procedure, shortened: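 In 384-well opaque plates, primary murine bone marrow-derived macrophages were infected with luciferase-expressing M. tuberculosis CDC1551 (multiplicity of infection 1, 1 h) 24 h after seeding, then treated for 6 days across final concentrations of 80–0.13 μM. Growth was measured by Bright-Glo luciferin assay, normalised to a reference drug control and the lowest-concentration wells. The reported value is the area under the growth-inhibition dose–response curve from GraphPad Prism.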

Compound | area under cytotoxicity dose-response curve [1] | area under intracellular growth-inhibition dose-response curve [2]
C/C(=N\Cc1ccc2c(c1)OCO2)C1=C(O)c2ccccc2C1=O | < 0 | 214
O=C(N/N=C/c1cccc2nccnc12)c1ccncc1 | 36.1 | 271
O=c1c2cc(Cl)ccc2oc2nc3n(c(=O)c12)CCCS3 | 33.5 | 216
CCN(CC)S(=O)(=O)c1ccc2c(c1)c(=O)c(C(=O)NCCc1ccccc1)cn2C | 22.5 | 157
CC[C@@H](C)[C@@H]1CN([C@@H](CN2CCC[C@H]2CN2C(N)=NC[C@@H]2Cc2ccccc2)C(C)C)C(=N)N1CCCC1CCCC1 | 98.8 | 83.6
Cc1nnc(SCC2=C(C(=O)O)N3C(=O)C(NC(=O)Cn4nc(C(F)F)cc4C)C3SC2)s1 (configuration not stated) | < 0 | 215
O=C(CC1CCCCC1)NCC1CCCO1 (configuration not stated) | 25.1 | 165
CCn1cc(CNC(=O)c2cc([N+](=O)[O-])c(C)c([N+](=O)[O-])c2)cn1 | 16.8 | 226
CC1(C)C2CCC1(C)C(NC(=O)/C=C/c1ccccc1)C2 (configuration not stated) | 58.5 | 242
O=[N+]([O-])c1ccccc1-c1cc(-c2ccccc2)cc(-c2ccccc2)[n+]1Cc1ccccc1Cl.[O-][Cl+3]([O-])([O-])[O-] | < 0 | 144
NC1=NC[C@@H](CC2CCCCC2)N1CCc1cc(C(F)(F)F)cc(C(F)(F)F)c1 | 109 | 52.6
O=C(NC(=S)Nc1ccc(NC(=O)c2cccs2)cc1)c1ccco1 | < 0 | 268
C/C(CC(=O)Nc1ccc(Cl)cc1Cl)=N\NC(=O)c1ccncc1 | 46.2 | 270
C=C[C@]1(C)C[C@@H](OC(=O)CSCCN(CC)CC)[C@]2(C)C(C)CC[C@]3(CCC(=O)[C@H]32)[C@@H](C)[C@@H]1O (some centres not stated) | < 0 | 231
O=C(NCc1ccccc1)c1cc2ccccc2o1 | 71.7 | 197
CCOc1ccc(C(=O)CCC(=O)NNC(=O)c2ccncc2)cc1 | 49 | 119
COc1ccc(CNC(=O)c2c(C)nc3ccccn23)cc1 | 8.66 | 268
CCOC(=O)c1cc(-c2csc(-c3ccc(C(C)(C)C)cc3)n2)on1 | 79.1 | 231
Nc1nc(Cl)nc2c1ncn2[C@@H]1O[C@H](CO)[C@@H](O)[C@H]1O | 81.9 | 205
O=C(Nc1ccc2c(c1)OCCO2)NC12CC3CC(CC(C3)C1)C2 | 22.8 | 136
Cn1c(NC(=S)Nc2ccccc2)nc2ccccc21 | 55.9 | 206

Compound | area under cytotoxicity dose-response curve [1] | area under intracellular growth-inhibition dose-response curve [2]
CC1CCC(C(C)C)C(OC(=O)C[n+]2c(-c3ccccc3)n(C)c3ccccc32)C1.[Cl-] (configuration not stated) | 56.7 | 202
O=C(NCc1ccncc1)c1cccc(S(=O)(=O)N2CCc3ccccc32)c1 | 39.9 | < 0
CC(=O)Nc1sc(N/N=C/c2ccc(N(C)C)cc2)nc1-c1ccc(C)cc1 | 6.8 | 263
O=c1cc(-c2c(F)c(F)c(F)c(F)c2F)oc2ccccc12 | 11.4 | 122
O=C(N/N=C/c1ccc2c(c1)OCCO2)c1ccncc1 | 66.5 | 124
CC(=O)N1CCN(c2ccc(NC(=O)c3ccc([N+](=O)[O-])o3)cc2Cl)CC1 | 88.8 | 49.4
C/C(=N\NC(=O)c1ccncc1)C12CC3CC(CC(C3)C1)C2 | 97.9 | 239
CNc1nc(SC)nc2ccsc12 | 11.7 | 221
CC1CCN(c2ccc(NC(=O)c3ccc([N+](=O)[O-])o3)cc2)CC1.Cl | 90.4 | 56.1
CN1/C(=C/C(=O)c2cccs2)Sc2ccccc21 | 48 | 139
C[n+]1c2ccccc2nc2ccc(NCCO)cc21.[O-][Cl+3]([O-])([O-])[O-] | < 0 | 107
O=C(O)/C=C\C(=O)O.OC(CCCN1CCCCC1)(c1ccccc1)c1ccc(C(F)(F)F)cc1 (configuration not stated) | 32.3 | 214
COc1cc(/C=N/NC(=O)c2ccncc2)ccc1OC(C)=O | 37.6 | 273
On1c(-c2ccc(Cl)cc2)nc2ccccc21 | 124 | 63.1
CCOc1ccc(-c2c(C)[n+](-c3ccc(OCC)cc3)c3n2CCCCC3)cc1.[O-][Cl+3]([O-])([O-])[O-] | 8.93 | 57.1
CC(C)c1ccc(CNc2nc3nc4c(c(O)n3n2)CCC4)cc1 | < 0 | 163
Cc1ccccc1C(=O)N1CCN(c2ccc(NC(=S)NC(=O)c3ccco3)cc2)CC1 | 63.6 | 185
Cc1ccc(C)c2sc(N3CCN(C(=O)c4ccc([N+](=O)[O-])o4)CC3)nc12 | 33.4 | 3.34
NC1=NC(=O)/C(=C/c2ccc(Cl)cc2Cl)S1 | < 0 | 129
O=C(Sc1cccc2cccnc12)c1ccc(F)cc1 | 125 | 110
Cc1nc(SCC(=O)NCc2ccc3c(c2)OCO3)nc(C)c1C | < 0 | 54.6

Compound | area under cytotoxicity dose-response curve [1] | area under intracellular growth-inhibition dose-response curve [2]
CC(C)CC(=O)NC(=S)Nc1ccc(NC(=O)c2cccs2)cc1 | 33.2 | 271
C/C(CC(=O)NCCN1CCOCC1)=N\NC(=O)c1ccncc1 | 12.5 | 206
CC1CC(C)CN(C(=O)c2ccc(CNc3c(N4CCCC4)c(=O)c3=O)cc2)C1 (configuration not stated) | 166 | 179
BrC(=C\c1ccccc1)/C=N/n1cnnc1 | 97.5 | 5.21
Cc1nn2c(O)cc(-c3ccc([N+](=O)[O-])cc3)nc2c1-c1ccccc1 | 99.5 | 128
Cc1cccc(C)c1-n1c(C)cc(/C=N/NC(=O)c2ccncc2)c1C | 32.2 | 252
O=C(Nc1ccc(C(=O)Oc2ccccc2)c(O)c1)c1ccco1 | 4.02 | 223
Cc1ccc(OCCOC(=O)c2c(-c3ccccc3)noc2C)cc1 | < 0 | 200
CC(NC(=O)c1cc([N+](=O)[O-])cc([N+](=O)[O-])c1)C1CC2CCC1C2 (configuration not stated) | 64.9 | 257
COCCNc1c(-c2ccc(OC)cc2)nc2ccc(Cl)cn12 | 32.9 | 87.8
Cn1c(COc2ccc(Cl)cc2)nnc1SCC(=O)NC1CC1 | 96 | 24.4
CN(C)c1ccc(/C=N/CC2(O)CCOC(C)(C)C2)cc1 (configuration not stated) | 103 | 1.75
O=C(CSc1cccc[n+]1[O-])CSc1cccc[n+]1[O-] | 9.55 | 29.1
COc1ccc2nc(C)cc(N/N=C/c3cccc(OC)c3O)c2c1 | 69 | 124
O=C(COC(=O)c1ccccc1O)NC1CCCc2ccccc21 (configuration not stated) | < 0 | 126
CCn1cc(C(=O)NCCc2ccccc2)c(=O)c2cc(S(=O)(=O)N3CCCC3)ccc21 | 74.8 | 203
O=C(c1ccc([N+](=O)[O-])o1)N1CCN(c2nc3c(F)cc(F)cc3s2)CC1 | 161 | 20.8
Cc1ccnc2c1ccc1c(C)ccnc12.O | 38.9 | 199
CC1CCCC(C)N1C(=O)COC(=O)c1cccnc1Cl (configuration not stated) | 9.13 | 33.7
